The values below are quoted from earlier work in patent US9540355B2, “Irciniastatin analogues” (priority 2013, dated 2017).

As a reminder, the IC50 is the concentration needed to halve the response being measured.

For one data set, the system named is PC3. As to conditions: PC3, prostate; cited from earlier work.
For another data set, the system named is H226. The note with it: H226, lung; cited from earlier work.
The test system of another data set is MKN45. The note with it: MKN45, gastric; cited from earlier work.
A further data set deals with NHDF. The note with it: normal; cited from earlier work.
The next data set deals with ACHN. The note with it: kidney; cited from earlier work.
The test system of a further data set is SW620. As to conditions: SW620, colon; cited from earlier work.
Another data set concerns MB231. The note with it: MB231, breast; cited from earlier work.
The next data set has as its system HOP62. The note with it: HOP62, lung; cited from earlier work.
In the next data set the test system is DU145. As to conditions: DU145, prostate; cited from earlier work.

For the substance C11-Deoxyirciniastatin [compound 29], the half-maximal inhibitory concentration (IC50) is 73 ± 6 pM in the data set on PC3; 34 ± 4 pM in the data set on H226; 76 ± 4 pM in the data set on MKN45; 66 ± 4 pM in the data set with NHDF; 265 ± 8 pM in the data set on ACHN; 160 ± 15 pM in the data set with SW620. Further, the IC50 with MB231 is 142 ± 7 pM; in the data set on HOP62 it was 55 ± 2 pM; with DU145, 149 ± 5 pM.
